Measurements published in patent US20100125081A1, “NEW COMPOUNDS 574” (ASTRAZENECA AB, priority 2008, published 2010).

What follows are compounds tested against T1, human β-Secretase (Homo sapiens, UniProt P56817) (assay: TR-FRET assay (β-secretase enzyme, sBACE-Fc)). Settings: soluble human β-secretase (AA 1-460) Fc fusion, substrate (Europium)CEVNLDAEFK(Qsy7) 100 nM, pH 4.5; unit inferred, nM taken.
T1 construct: soluble part of the human β-Secretase (AA 1-AA 460); Fc domain of IgG1 (C); made in house
Assay type: biochemical
Experimental: The β-secretase enzyme used in the TR-FRET is prepared as follows:
The cDNA for the soluble part of the human β-Secretase (AA 1-AA 460) was cloned using the ASP2-Fc10-1-IRES-GFP-neoK mammalian expression vector. The gene was fused to the Fc domain of IgG1 (affinity tag) and stably cloned into HEK 293 cells.
The enzyme (truncated form) was diluted to 6 μg/mL (stock 1.3 mg/mL) and the substrate (Europium)CEVNLDAEFK(Qsy7) to 200 nM (stock 120 μM) in reaction buffer (NaAcetate, chaps, triton x-100, EDTA pH4.5). The robotic systems Biomek FX and Velocity 11 were used for all liquid handling and the enzyme and substrate solutions were kept on ice until they were placed in the robotic system. Enzyme (9 μl) was added to the plate then 1 μl of compound in dimethylsulphoxide was added, mixed and pre-incubated for 10 minutes. Substrate (10 μl) was then added, mixed and the reaction proceeded for 15 minutes at room temperature. The reaction was stopped with the addition of Stop solution (7 μl, NaAcetate, pH 9). The fluorescence of the product was measured on a Victor II plate reader with an excitation wavelength of 340 nm and an emission wavelength of 615 nm. The assay was performed in a Costar 384 well round bottom, low volume, non-binding surface plate (Corning #3676). The final concentration of the enzyme was 2.7 μg/ml; the final concentration of substrate was 100 nM (Km of ˜250 nM). The dimethylsulphoxide control, instead of test compound, defined the 100% activity level and 0% activity was defined by wells lacking enzyme (replaced with reaction buffer).

T1 sequence (P56817 22-460): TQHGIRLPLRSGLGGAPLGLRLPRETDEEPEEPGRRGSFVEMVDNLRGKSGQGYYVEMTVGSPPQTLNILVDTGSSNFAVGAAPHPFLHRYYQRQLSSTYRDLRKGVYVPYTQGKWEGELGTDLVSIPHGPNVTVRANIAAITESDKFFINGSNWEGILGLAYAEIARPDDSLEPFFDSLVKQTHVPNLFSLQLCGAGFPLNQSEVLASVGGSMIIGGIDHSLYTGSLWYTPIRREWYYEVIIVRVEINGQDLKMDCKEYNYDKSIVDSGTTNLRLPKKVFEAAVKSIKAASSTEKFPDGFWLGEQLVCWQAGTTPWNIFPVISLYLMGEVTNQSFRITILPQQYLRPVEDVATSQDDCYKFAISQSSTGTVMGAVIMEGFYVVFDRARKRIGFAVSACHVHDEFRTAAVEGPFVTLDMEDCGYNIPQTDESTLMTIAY

Cc1cc(C2(c3cccc(-c4cncnc4)c3)N=C(N)c3ncccc32)cc(C)n1 (centres unmarked) [Example 4, 5-(2,6-Dimethylpyridin-4-yl)-5-(3-(pyrimidin-5-yl)phenyl)-5H-pyrrolo[3,4-b]pyridin-7-amine] was tested. Which IC50 did it give?
The IC50 was 1800 nM.

How did the IC50 turn out when NC1=NC(c2cccc(-c3cncnc3)c2)(c2ccc(OC(F)F)c(F)c2)c2cccnc21 (centres unmarked) [Example 18, 5-(4-(Difluoromethoxy)-3-fluorophenyl)-5-(3-(pyrimidin-5-yl)phenyl)-5H-pyrrolo[3,4-b]pyridin-7-amine] was run?
Its IC50 is 204 nM.

How did the IC50 turn out when COc1ccc(C2(c3cccc(-c4cncnc4)c3)N=C(N)c3ncccc32)cc1Cl (centres unmarked) [Example 7, 5-(3-Chloro-4-methoxyphenyl)-5-(3-(pyrimidin-5-yl)phenyl)-5H-pyrrolo[3,4-b]pyridin-7-amine] was run?
The IC50 was 248 nM.

For NC1=NC(c2cccc(-c3cncnc3)c2)(c2ccnc(OC=C(F)F)c2)c2cccnc21 (centres unmarked) [Example 17, 5-(2-(2,2-Difluorovinyloxy)pyridin-4-yl)-5-(3-(pyrimidin-5-yl)phenyl)-5H-pyrrolo[3,4-b]pyridin-7-amine 0.2 acetic acid], which IC50 is on record?
The IC50 was 1140 nM.

For N#Cc1ccnc(-c2cccc(C3(c4ccnc(C(F)(F)F)c4)N=C(N)c4ncccc43)c2)c1 (centres unmarked) [Example 22, 2-(3-(7-Amino-5-(2-(trifluoromethyl)pyridin-4-yl)-5H-pyrrolo[3,4-b]pyridin-5-yl)phenyl)isonicotinonitrile], which IC50 is on record?
The IC50 was 1800 nM.

For NC1=NC(c2cccc(-c3cncnc3)c2)(c2ccnc(OCCCF)c2)c2cccnc21 (centres unmarked) [Example 28, 5-(2-(3-Fluoropropoxy)pyridin-4-yl)-5-(3-(pyrimidin-5-yl)phenyl)-5H-pyrrolo[3,4-b]pyridin-7-amine], which IC50 is on record?
Its IC50 is 1560 nM.

For NC1=NC(c2cccc(-c3cccnc3)c2)(c2ccnc(C(F)(F)F)c2)c2cccnc21 (centres unmarked) [Example 3, 5-(3-(Pyridin-3-yl)phenyl)-5-(2-(trifluoromethyl)pyridin-4-yl)-5H-pyrrolo[3,4-b]pyridin-7-amine], which IC50 is on record?
The IC50 was 560 nM.

Cc1cc(C2(c3cccc(-c4cnccn4)c3)N=C(N)c3ncccc32)cc(C)c1OCF (centres unmarked) [Example 27, 5-(4-(Fluoromethoxy)-3,5-dimethylphenyl)-5-(3-(pyrazin-2-yl)phenyl)-5H-pyrrolo[3,4-b]pyridin-7-amine] was tested. Which IC50 did it give?
Its IC50 is 90 nM.

COc1c(C)cc(C2(c3cccc(-c4cncnc4)c3)N=C(N)c3ncccc32)cc1F (centres unmarked) [Example 36, 5-(3-Fluoro-4-methoxy-5-methylphenyl)-5-(3-(pyrimidin-5-yl)phenyl)-5H-pyrrolo[3,4-b]pyridin-7-amine] was tested. Which IC50 did it give?
Its IC50 is 41 nM.

NC1=NC(c2cccc(-c3cncnc3)c2)(c2ccc(OC(F)F)c(CCF)c2)c2cccnc21 (centres unmarked) [Example 34, 5-[4-Difluoromethoxy-3-(2-fluoro-ethyl)-phenyl]-5-(3-pyrimidin-5-yl-phenyl)-5H-pyrrolo[3,4-b]pyridin-7-ylamine] was tested. Which IC50 did it give?
Its IC50 is 30 nM.

With COc1ccc(C2(c3cccc(-c4cncnc4)c3)N=C(N)c3ncccc32)cc1C1CC1 (centres unmarked) [Example 33, 5-(3-Cyclopropyl-4-methoxy-phenyl)-5-(3-pyrimidin-5-yl-phenyl)-5H-pyrrolo[3,4-b]pyridin-7-ylamine] as the compound, how does the IC50 read?
Its IC50 is 222 nM.

How did the IC50 turn out when Cc1cc(C2(c3cccc(-c4cncnc4)c3)N=C(N)c3ncccc32)cc(C)c1OCF (centres unmarked) [Example 26, 5-(4-(Fluoromethoxy)-3,5-dimethylphenyl)-5-(3-(pyrimidin-5-yl)phenyl)-5H-pyrrolo[3,4-b]pyridin-7-amine] was run?
The IC50 was 42 nM.

How did the IC50 turn out when Cc1cc(C2(c3cccc(-c4cncnc4)c3)N=C(N)c3ncccc32)cc(C)c1F (centres unmarked) [Example 14, 5-(4-Fluoro-3,5-dimethylphenyl)-5-(3-(pyrimidin-5-yl)phenyl)-5H-pyrrolo[3,4-b]pyridin-7-amine] was run?
Its IC50 is 593 nM.

For Cc1cc(C2(c3cccc(-c4cncnc4)c3)N=C(N)c3ncc(Cl)cc32)ccn1 (centres unmarked) [Example 10, 3-Chloro-5-(2-methylpyridin-4-yl)-5-(3-(pyrimidin-5-yl)phenyl)-5H-pyrrolo[3,4-b]pyridin-7-amine], which IC50 is on record?
The IC50 was 639 nM.

NC1=NC(c2cccc(-c3cccc(Cl)c3)c2)(c2ccnc(C(F)(F)F)c2)c2cccnc21 (centres unmarked) [Example 1, 5-(3′-Chlorobiphenyl-3-yl)-5-(2-(trifluoromethyl)pyridin-4-yl)-5H-pyrrolo[3,4-b]pyridin-7-amine] was tested. Which IC50 did it give?
Its IC50 is 400 nM.

With COc1ccc(C2(c3cccc(-c4cnccn4)c3)N=C(N)c3ncccc32)cc1Cl (centres unmarked) [Example 8, 5-(3-Chloro-4-methoxyphenyl)-5-(3-(pyrazin-2-yl)phenyl)-5H-pyrrolo[3,4-b]pyridin-7-amine] as the compound, how does the IC50 read?
The IC50 was 610 nM.

Which IC50 does the source give for NC1=NC(c2cccc(-c3cncnc3)c2)(c2ccc(OC(F)F)c(C3CC3)c2)c2cccnc21 (centres unmarked) [Example 9, 5-(3-Cyclopropyl-4-(difluoromethoxy)phenyl)-5-(3-(pyrimidin-5-yl)phenyl)-5H-pyrrolo[3,4-b]pyridin-7-amine acetic acid] here?
Its IC50 is 33 nM.

How did the IC50 turn out when Cc1cc(C2(c3ccccc3)N=C(N)c3ncccc32)cc(C2CC2)c1OC(F)F (centres unmarked) [Example 31, 5-[3-Cyclopropyl-4-(difluoromethoxy)-5-methyl-phenyl]-5-phenyl-pyrrolo[3,4-b]pyridin-7-amine] was run?
Its IC50 is 815 nM.

COc1ccc(F)c(-c2cc(C3(c4ccnc(C(F)(F)F)c4)N=C(N)c4ncccc43)ccc2O)c1 (centres unmarked) [Example 37, 5-(7-Amino-5-(2-(trifluoromethyl)pyridin-4-yl)-5H-pyrrolo[3,4-b]pyridin-5-yl)-2′-fluoro-5′-methoxybiphenyl-2-ol] was tested. Which IC50 did it give?
The IC50 was 206 nM.

For COc1ccnc(-c2cccc(C3(c4ccnc(C(F)(F)F)c4)N=C(N)c4ncccc43)c2)c1 (centres unmarked) [Example 19, 5-(3-(4-methoxypyridin-2-yl)phenyl)-5-(2-(trifluoromethyl)pyridin-4-yl)-5H-pyrrolo[3,4-b]pyridin-7-amine], which IC50 is on record?
The IC50 was 359 nM.

Which IC50 does the source give for Cc1cc(C2(c3ccnc(-c4cncnc4)c3)N=C(N)c3ncccc32)cc(C)c1OC(F)F (centres unmarked) [Example 29, 5-(4-Difluoromethoxy-3,5-dimethyl-phenyl)-5-(2-pyrimidin-5-yl-pyridin-4-yl)-5H-pyrrolo[3,4-b]pyridin-7-ylamine] here?
The IC50 was 106 nM.

With Cc1cc(C2(c3cccc(-c4cnccn4)c3)N=C(N)c3ncccc32)cc(C)c1OC(F)F (centres unmarked) [Example 13, 5-(4-(Difluoromethoxy)-3,5-dimethylphenyl)-5-(3-(pyrazin-2-yl)phenyl)-5H-pyrrolo[3,4-b]pyridin-7-amine] as the compound, how does the IC50 read?
Its IC50 is 38 nM.

For NC1=NC(c2ccnc(C(F)(F)F)c2)(c2ccc(O)c(-c3ccccc3F)c2)c2cccnc21 (centres unmarked) [Example 38, 5-(7-Amino-5-(2-(trifluoromethyl)pyridin-4-yl)-5H-pyrrolo[3,4-b]pyridin-5-yl)-2′-fluorobiphenyl-2-ol], which IC50 is on record?
The IC50 was 658 nM.

Which IC50 does the source give for NC1=NC(c2cccc(-c3cncc(Cl)c3)c2)(c2ccnc(C(F)(F)F)c2)c2cccnc21 (centres unmarked) [Example 21, 5-(3-(5-Chloropyridin-3-yl)phenyl)-5-(2-(trifluoromethyl)pyridin-4-yl)-5H-pyrrolo[3,4-b]pyridin-7-amine] here?
Its IC50 is 239 nM.

For Cc1cc(C2(c3cccc(-c4cncnc4)c3)N=C(N)c3ncccc32)cc(C(F)F)n1 (centres unmarked) [Example 20, 5-(2-(Difluoromethyl)-6-methylpyridin-4-yl)-5-(3-(pyrimidin-5-yl)phenyl)-5H-pyrrolo[3,4-b]pyridin-7-amine], which IC50 is on record?
The IC50 was 445 nM.

How did the IC50 turn out when COc1c(C)cc(C2(c3cccc(-c4cncnc4)c3)N=C(N)c3ncccc32)nc1C (centres unmarked) [Example 35, 5-(5-Methoxy-4,6-dimethyl-pyridin-2-yl)-5-(3-pyrimidin-5-yl-phenyl)-5H-pyrrolo[3,4-b]pyridin-7-ylamine] was run?
The IC50 was 125 nM.
